Measured values: patent US8354451B2, “Treatment of microbial infections with compounds that inhibit 4-hydroxyphenylpyruvate dioxygenase” (The UWM Research Foundation, Inc., priority 2009, dated 2013)
Where two headings read alike, the source gives them in different places.

Experiments:
Pseudomonas aeruginosa = experiment: Murine model of systemic infection, intraperitoneal; settings: 1 mg/Kg NTBC daily
B. cenocepacia C5424 = type: cell-based, Burkholderia cenocepacia; settings: 24 h culture, OD597

## O=C1CCCC(=O)C1C(=O)c1ccc(C(F)(F)F)cc1[N+](=O)[O-] [NTBC, 2-(2-nitro-4-trifluoromethylbenzoyl)-1,3-cyclohexanedione]
Pseudomonas aeruginosa
  time to return to normal growth (weight) after administration: ≤ 24 h
Pseudomonas aeruginosa; 3.2×10^8 CFU P. aeruginosa
  survival rate versus infected untreated mice: three-fold higher survival rate
B. cenocepacia C5424; 10 μM NTBC
  pigment production relative to untreated C5424: 31.95±3.96%
B. cenocepacia C5424; 100 μM NTBC
  pigment production relative to untreated C5424: 26.89±0.59%
